Data taken from ChEMBL document CHEMBL1201862, “PubChem BioAssay data set” (2004).
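These data come from cells grown in 96-well plates and exposed to compound for 48 hours at five concentrations. The concentration for 50% growth inhibition is given as GI50.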 Active and inactive are the calls of the source. No stated cut-off is given here; in the data, active = GI50 up to about 1.1 µM and inactive = higher.

Key:
Test in all cases: DTP human tumour cell line panel, 48 h
786-0 = system: 786-0
A498 = system: A498
A549 = system: A549
ACHN = system: ACHN
CAKI-1 = system: CAKI-1
CCRF-CEM = system: CCRF-CEM
COLO 205 = system: COLO 205
DU-145 = system: DU-145
EKVX = system: EKVX
HCC 2998 = system: HCC 2998
HCT-116 = system: HCT-116
HCT-15 = system: HCT-15
HL-60 = system: HL-60
HOP-62 = system: HOP-62
HOP-92 = system: HOP-92
HT-29 = system: HT-29
Hs-578T = system: Hs-578T
IGROV-1 = system: IGROV-1
K562 = system: K562
KM12 = system: KM12
LOX IMVI = system: LOX IMVI
M14 = system: M14
MCF7 = system: MCF7
MDA-MB-231 = system: MDA-MB-231
MDA-MB-435 = system: MDA-MB-435
MDA-N = system: MDA-N
MOLT-4 = system: MOLT-4
Malme-3M = system: Malme-3M
NCI-H226 = system: NCI-H226
NCI-H23 = system: NCI-H23
NCI-H460 = system: NCI-H460
NCI-H522 = system: NCI-H522
NCI/ADR-RES = system: NCI/ADR-RES
OVCAR-3 = system: OVCAR-3
OVCAR-4 = system: OVCAR-4
OVCAR-5 = system: OVCAR-5
OVCAR-8 = system: OVCAR-8
PC-3 = system: PC-3
RPMI-8226 = system: RPMI-8226
RXF 393 = system: RXF 393
SF-268 = system: SF-268
SF-295 = system: SF-295
SF-539 = system: SF-539
SK-MEL-28 = system: SK-MEL-28
SK-MEL-2 = system: SK-MEL-2
SK-MEL-5 = system: SK-MEL-5
SK-OV-3 = system: SK-OV-3
SN12C = system: SN12C
SNB-19 = system: SNB-19
SW-620 = system: SW-620
T47D = system: T47D
TK-10 = system: TK-10
U-251 = system: U-251
UACC-257 = system: UACC-257
UACC-62 = system: UACC-62
UO-31 = system: UO-31

In the case of `COc1ccc(C2OC(c3ccncc3)=NN2C)cc1F` (stereo unspecified), the GI50 (786-0) is reported as > 100 µM (inactive), the GI50 (A498) is reported as > 100 µM (inactive) and the GI50 (A549) is reported as > 100 µM (inactive). For the same compound, the GI50 (ACHN) was > 100 µM (inactive), the GI50 (CAKI-1) was 51.4 µM (inactive) and the GI50 (CCRF-CEM) was > 100 µM (inactive). For the same compound, the GI50 (COLO 205) was > 100 µM (inactive), the GI50 (DU-145) was > 100 µM (inactive) and the GI50 (EKVX) was > 100 µM (inactive). For the same compound, the GI50 (HCC 2998) was > 100 µM (inactive), the GI50 (HCT-116) was > 100 µM (inactive) and the GI50 (HCT-15) was greater than 100 µM. For the same compound, the GI50 (HL-60) was > 100 µM (inactive), the GI50 (HOP-62) was > 100 µM (inactive) and the GI50 (HOP-92) was > 100 µM (inactive). The GI50 (HT-29) was > 100 µM (inactive), the GI50 (Hs-578T) was > 100 µM (inactive) and the GI50 (IGROV-1) was > 100 µM (inactive). For the same compound, the GI50 (K562) was > 100 µM (inactive), the GI50 (KM12) was > 100 µM (inactive) and the GI50 (LOX IMVI) was > 100 µM (inactive). The GI50 (M14) was > 100 µM (inactive), the GI50 (MCF7) was > 100 µM (inactive) and the GI50 (MDA-MB-231) was > 100 µM (inactive). For the same compound, the GI50 (MDA-MB-435) was > 100 µM (inactive), the GI50 (MDA-N) was > 100 µM (inactive) and the GI50 (MOLT-4) was 41.9 µM (inactive). For the same compound, the GI50 (Malme-3M) was > 100 µM (inactive), the GI50 (NCI-H226) was > 100 µM (inactive) and the GI50 (NCI-H23) was > 100 µM (inactive). For the same compound, the GI50 (NCI-H460) was > 100 µM (inactive), the GI50 (NCI-H522) was > 100 µM (inactive) and the GI50 (NCI/ADR-RES) was > 100 µM (inactive). The GI50 (OVCAR-3) was > 100 µM (inactive), the GI50 (OVCAR-4) was > 100 µM (inactive) and the GI50 (OVCAR-5) was > 100 µM (inactive). The GI50 (OVCAR-8) was > 100 µM (inactive), the GI50 (PC-3) was > 100 µM (inactive) and the GI50 (RPMI-8226) was > 100 µM (inactive). For the same compound, the GI50 (RXF 393) was > 100 µM (inactive), the GI50 (SF-268) was > 100 µM (inactive) and the GI50 (SF-295) was > 100 µM (inactive). For the same compound, the GI50 (SF-539) was > 100 µM (inactive), the GI50 (SK-MEL-28) was > 100 µM (inactive) and the GI50 (SK-MEL-2) was > 100 µM (inactive). The GI50 (SK-MEL-5) was > 100 µM (inactive), the GI50 (SK-OV-3) was > 100 µM (inactive) and the GI50 (SN12C) was > 100 µM (inactive). The GI50 (SNB-19) was > 100 µM (inactive), the GI50 (SW-620) was > 100 µM (inactive) and the GI50 (T47D) was > 100 µM (inactive). The GI50 (TK-10) was > 100 µM (inactive), the GI50 (U-251) was > 100 µM (inactive) and the GI50 (UACC-257) was > 100 µM (inactive). The GI50 (UACC-62) was > 100 µM (inactive) and the GI50 (UO-31) was > 100 µM (inactive).
